The text below walks through data of patent publication US20130102009A1, “SIRTUIN ACTIVATORS AND ACTIVATION ASSAYS” (priority 2010, published 2013).

Peptide text beside a SMILES is read from it. Where only a bound is given, the exact number is not on record here.

Assay [1] addresses T1, SIRT1 (Homo sapiens, UniProt Q96EB6).
T1 sequence (Q96EB6 1-747): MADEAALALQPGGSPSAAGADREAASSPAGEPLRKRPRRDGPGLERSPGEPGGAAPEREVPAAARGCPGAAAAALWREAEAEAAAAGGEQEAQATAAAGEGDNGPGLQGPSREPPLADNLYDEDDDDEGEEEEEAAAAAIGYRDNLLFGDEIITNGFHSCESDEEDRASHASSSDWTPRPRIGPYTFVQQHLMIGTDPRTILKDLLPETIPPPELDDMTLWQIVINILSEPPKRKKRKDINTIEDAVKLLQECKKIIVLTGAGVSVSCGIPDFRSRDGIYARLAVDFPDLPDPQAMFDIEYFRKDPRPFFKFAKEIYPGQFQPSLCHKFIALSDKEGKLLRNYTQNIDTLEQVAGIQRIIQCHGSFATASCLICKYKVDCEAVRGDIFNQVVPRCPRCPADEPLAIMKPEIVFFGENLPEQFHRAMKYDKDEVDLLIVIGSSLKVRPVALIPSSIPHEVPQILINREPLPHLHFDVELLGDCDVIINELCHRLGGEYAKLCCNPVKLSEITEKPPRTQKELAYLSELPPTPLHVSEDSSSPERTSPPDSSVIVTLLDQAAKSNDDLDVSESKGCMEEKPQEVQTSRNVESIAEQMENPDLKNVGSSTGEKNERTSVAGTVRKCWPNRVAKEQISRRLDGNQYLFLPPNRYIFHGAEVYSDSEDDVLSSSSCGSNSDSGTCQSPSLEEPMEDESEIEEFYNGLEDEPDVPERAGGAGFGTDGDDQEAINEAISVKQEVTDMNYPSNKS
The experiment in a line: Mass spectrometry based SIRT1 activation assay (TAMRA/5TMR-labeled 20mer peptide). It counts as biochemical. The source says:
A mass spectrometry based assay was used to identify modulators of SIRTI activity. The mass spectrometry based assay utilizes a peptide having 20 amino acid residues as follows: Ac-EE-K(biotin)-GQSTSSHSK(Ac)NleSTEG-K(5TMR)-EE-NH2 (SEQ ID NO: 1) wherein K(Ac) is an acetylated lysine residue and Nle is a norleucine. The peptide is labeled with the fluorophore 5TMR (excitation 540 nrnIemission 580 nm) at the C-terminus. The sequence of the peptide substrate is based on p53 with several modifications. In addition, the methionine residue naturally present in the sequence was replaced with the norleucine because the methionine may be susceptible to oxidation during synthesis and purification.
The mass spectrometry assay is conducted as follows: 0.5 J-1M peptide substrate and 120 μM βNAD^+ is incubated with 10 nM SIRT1 for 25 minutes at 25° C. in a reaction buffer (50 mM Tris-acetate pH 8, 137 mM NaCl, 2.7 mM KCl, 1 mM MgClz, 5 mM DTT, 0.05% BSA). Test compounds may be added to the reaction as described above. The SirTI gene is cloned into a T7-promoter containing vector and transformed into BL21 (DE3). After the 25 minute incubation with SIRT1, 10 μL of 10% formic acid is added to stop the reaction. Reactions are sealed and frozen for later mass spec analysis. Determination of the mass of the substrate peptide allows for precise determination of the degree of acetylation (i.e. starting material) as compared to deacetylated peptide (product).
A control for inhibition of sirtuin activity is conducted by adding 1 μL of 500 mM nicotinamide as a negative control at the start of the reaction (e.g., permits determination of maximum sirtuin inhibition). A control for activation of sirtuin activity is conducted using 10 nM of sirtuin protein, with 1 μL of DMSO in place of compound, to determine the amount of deacetylation of the substrate at a given timepoint within the linear range of the assay. This timepoint is the same as that used for test compounds and, within the linear range, the endpoint represents a change in velocity.
For the above assay, SIRTI protein was expressed and purified as follows. The SirT1 gene was cloned into a T7-promoter containing vector and transformed into BL21(DE3). The protein was expressed by induction with 1 mM IPTG as an N-terminal His-tag fusion protein at 18° C. overnight and harvested at 30,000×g. Cells were lysed with lysozyme in lysis buffer (50 mM Tris-HCl, 2 mM Tris[2-carboxyethyl]phosphine (TCEP), 10 μM ZnCl2, 200 mM NaCl) and further treated with sonication for 10 min for complete lysis. The protein was purified over a Ni-NTA column (Amersham) and fractions containing pure protein were pooled, concentrated and run over a sizing column (Sephadex S200 26/60 global). The peak containing soluble protein was collected and run on an Ion-exchange column (MonoQ). Gradient elution (200 mM-500 mM NaCl) yielded pure 20 protein. This protein was concentrated and dialyzed against dialysis buffer (20 mM TrisHCl, 2 mM TCEP) overnight. The protein was aliquoted and frozen at −80° C. until further use.
Sirtuin modulating compounds that activated SIRT1 were identified using the assay described above and are shown below in Table 4. The EC1.5 values represent the concentration of test compounds that result in 150% activation of SIRT1. The EC1.5 values for the activating compounds are represented by A (EC1.5≦1 μM), B (EC1.5>1 μM). The percent maximum fold activation is represented by A (Fold activation ≧200%) or B (Fold Activation <200%).

Assay [2] has as its target T2, SIRT1(183-664) (Homo sapiens, UniProt Q96EB6).
T2 construct: the truncated version used for biophysical studies SIRT1(183-664); made in house
T2 sequence (Q96EB6 183-664): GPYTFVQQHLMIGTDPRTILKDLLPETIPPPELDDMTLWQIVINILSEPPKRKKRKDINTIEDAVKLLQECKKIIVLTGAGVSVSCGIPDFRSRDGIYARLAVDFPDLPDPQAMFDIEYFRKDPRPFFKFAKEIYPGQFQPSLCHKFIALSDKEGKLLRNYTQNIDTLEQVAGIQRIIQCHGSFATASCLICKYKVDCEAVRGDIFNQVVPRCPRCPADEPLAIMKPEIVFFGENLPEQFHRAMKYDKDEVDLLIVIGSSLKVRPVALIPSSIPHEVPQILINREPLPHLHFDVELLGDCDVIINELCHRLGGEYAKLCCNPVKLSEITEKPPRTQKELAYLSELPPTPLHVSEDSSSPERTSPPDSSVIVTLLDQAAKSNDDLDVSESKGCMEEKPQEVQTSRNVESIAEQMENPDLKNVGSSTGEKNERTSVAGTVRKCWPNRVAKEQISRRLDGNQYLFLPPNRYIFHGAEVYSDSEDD
The experiment in a line: ITC binding of STACs to SIRT1(183-664). Conditions: dissociation constant of SRT:SIRT1 complex, read-out: Kx (μM), ITC. How it is done: All peptides were prepared by BioPeptide (San Diego, Calif.) and shown to be at least 95% pure by analytical HPLC analysis. Bovine glutamate dehydrogenase (GDH), α-ketoglutarate, NADH and NAD^+ were from Sigma Chemical Company. Full-length, human SIRT1 and the truncated version used for biophysical studies SIRT1(183-664) were prepared as described previously, and shown to have equivalent kinetic properties (Milne et al. (2007) Nature 450, 712-716). The nicotinamidase PNC1 was prepared as described by Denu and colleagues (Smith et al. (2009) Anal Biochem 394, 101-109). ITC experiments were performed using either a VP-ITC system or iTC200 system (MicroCal) at 26° C. in a buffer composed of 137 mM NaCl, 2.7 mM KCl, 1 mM MgCl2, 2 mM TCEP, 5% (v/v) glycerol and 50 mM HEPES-NaOH, pH 7.3. SIRT1(183-664) was purified and dialyzed against the buffer, centrifuged, and degassed before the experiment. The peptide and compounds were dissolved in the final dialysis buffer and their pH values were adjusted to match that of the protein solution. […] To characterize this interaction using the iTC200 system, 1 mM TAMRA-peptide was injected in 20 aliquots of 2 μL, (except the first injection, which was 0.5 μL) into a 0.202 mL sample cell containing 100 μM STAC. For STACs with poor solubility, the concentrations were adjusted accordingly. […] To characterize the interaction of a STAC with SIRT1(183-664) on the VP-ITC system, 100 μM enzyme was injected in 35 aliquots of 8 μL, (except the first injection, which was 2 μL) into a 1.47 mL sample cell containing 10 μM STAC. […] In all cases, data was corrected for the heat of dilution and fitted using a nonlinear least-squares routine using a single-site binding model with Origin for ITC v7.0383 (Microcal) with the stoichiometry (n), the enthalpy of the reaction (ΔH) and the association constant (Ka) calculated.

For assay [3], the target named is T1, SIRT1. The assay is described as follows: Steady-state kinetic parameters for SIRT1 substrates (PNC1-GDH-coupled assay). Conditions: 25° C., pH 7.5, [NAD+]o = 2 mM, [SIRT1]o 50-1,000 nM. It counts as biochemical. Also noted: kc/K1: unit not given here. The procedure: All peptides were prepared by BioPeptide (San Diego, Calif.) and shown to be at least 95% pure by analytical HPLC analysis. Bovine glutamate dehydrogenase (GDH), α-ketoglutarate, NADH and NAD^+ were from Sigma Chemical Company. Full-length, human SIRT1 and the truncated version used for biophysical studies SIRT1(183-664) were prepared as described previously, and shown to have equivalent kinetic properties (Milne et al. (2007) Nature 450, 712-716). The nicotinamidase PNC1 was prepared as described by Denu and colleagues (Smith et al. (2009) Anal Biochem 394, 101-109).
To determine the interaction of STACs with SIRT1 two kinetic methods were employed. One, which was used for TAMRA-peptide, desTAMRA-peptide, des(biotin,TAMRA)-peptide, and p53-20 mer, used a previously described mass spectroscopic method for detection of peptide reaction products (Milne et al. (2007) Nature 450, 712-716). The other, used with peptides of general structure Ac-Arg-His-Lys-Lys^Ac-X, used a continuous, enzyme-coupled method reported previously (Smith et al. (2009) Anal Biochem 394, 101-109), in which the SRT1 product nicotinamide is first converted into nicotinic acid and ammonia by the action of PNC1, and the ammonia then used by GDH to convert α-ketoglutarate into glutamate. This reaction occurs with oxidation of NADH to NAD^+ which is accompanied by a change in absorbance at 340 nm (Δε340=−6,200 M^−1 cm^−1).
The kinetic experiments used to characterize activators were run on a Perkin Elmer Lambda 25 spectrophotometer equipped with a water-jacketed, eight-cell changer maintained at 25° C. In a typical kinetic experiment, all components of the reaction solution except SIRT1 were added to a 1 mL cuvette and allowed to reach thermal equilibrium. Final concentrations of the coupling system components were: 1 μM PNC1, 0.23 mM NADH, 3.4 mM α-ketoglutarate, and 20 U/mL bovine GDH. This solution also contained peptide substrate, NAD^.0., and activator, at concentrations indicated in the text. The final DMSO concentration was kept constant at 1%, and the buffer used in these experiments was 50 mM HEPES, 150 mM NaCl, pH 7.5. While the system was reaching thermal equilibrium, the absorbance was monitored to provide an accurate estimate of the background rate, which was subtracted from the reaction rate after the addition of SIRT1.
The parameters reported in this table were all determined using the PNC1-GDH-coupled assay. Kinetic parameters for the four 20 mers were also estimated using the mass spectroscopy-based assay first described by Milne et al. ((2007) Nature 450, 712-716) and agree with those reported in Table 3.

For `CCCNc1cc(-c2nc3c(NC(=O)c4ccc(CN5CCNCC5)cc4)cccc3[nH]2)ccn1` [Compound 13], the Emax in assay [1] (25 min, percent maximum fold activation of SIRT1, read-out: % FOLD ACT.) was at least 200%. Besides, the “EC1.5 uM” value in assay [1] (concentration that results in 150% activation of SIRT1) is on record as “A (EC1.5≦1 μM)”. Also, the Kd in assay [2] turned out to be 0.32 µM.
As for `CC(=O)NCCCC[C@H](NC(=O)[C@H](CCCCN)NC(=O)[C@H](Cc1c[nH]cn1)NC(=O)[C@H](CCCNC(=N)N)NC(C)=O)C(=O)N[C@@H](Cc1c[nH]c2ccccc12)C(N)=O` [RHKK^AcW, Ac-Arg-His-Lys-Lys^Ac-Trp-NH2] (Ac-RHKK(Ac)W-NH2), in assay [3], the kc was 0.19 s⁻¹ and the kc/K1 was determined as 48.
For the compound `CCCNc1cc(-c2nc3c(NC(=O)c4ccc(CN5CCNCC5)cc4)cccc3[nH]2)ccn1` [drawing 20], in assay [2], the Kd worked out at 0.43 µM.
Still for that read-out and setting: with `CN(C)CCCNc1cc(-c2nc3c(NC(=O)c4ccc(CN5CCNCC5)cc4)cccc3[nH]2)ccn1` [drawing 21] the figure was 0.32 µM.
Regarding “Ac-EEK^(biotin)GQSTSSHSK^AcNle-STEGK^(5-TMR)EE-NH2 [TAMRA-peptide]”, in assay [3], the Km stood at 8.3 µM, the kc was found to be 0.036 s⁻¹ and the kc/K1 is given as 4.3.
For “EEKGQSTSSHK^AcJSTEGKEE [des(Biotin,TAMRA)-peptide]” the same measures were 40 µM, 0.044 s⁻¹ and 1.1.
For SKKGQSTSRHKK^AcLJKTEGP [p53-20mer] the same measures were 8.5 µM, 0.36 s⁻¹ and 42.

What is called Km is the substrate concentration at which the rate is half of its maximum.
